Measurements reported in article PMC9646721, “Alkaloid binding to opium poppy major latex proteins triggers structural modification and functional aggregation” (Nature Communications, 2022).
Where “and” joins values, the source holds several entries; their conditions need not be identical. Equal entries are not always repeated.

How the values were obtained:
THS = settings: cited from earlier work
NISO [1] = target: T1, NISO (Papaver somniferum, UniProt P0DYP9); design: made in house; host or cells: E. coli ArcticExpress (DE3); settings: read-out: Km app (substrate kinetics); cited from earlier work
T1 sequence (P0DYP9 entry or part of it): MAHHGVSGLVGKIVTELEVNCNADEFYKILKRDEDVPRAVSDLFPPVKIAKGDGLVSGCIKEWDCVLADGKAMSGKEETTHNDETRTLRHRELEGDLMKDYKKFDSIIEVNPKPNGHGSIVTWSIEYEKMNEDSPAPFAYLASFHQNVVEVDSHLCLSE

MLP2 = settings: read-out: Kd (ANS-protein, apparent); ANS 10 µM fixed, protein 0 to 100 µM; CBS pH 5.5; one-site hyperbolic model
Protocol: (§1) 8-anilino-1-naphthalenesulfonic acid (ANS) fluorescence binding curves and the binding-induced reduction in ANS fluorescence resulting from competition with tested ligands across a range of concentration facilitated the measurement of IC50 and an estimate of Kd values using the binding models and procedures described previously[70]. […] ANS was dissolved in dimethylsufoxide at a concentration of 20 mM, stored at −20 °C until dilution and protected from exposure to light. […] 40 µl of the ANS solution and 40 µl of each MLP/PR10 protein solution were combined to 80 µl final reaction volumes, which were incubated at 21 °C for 10 min to allow equilibration of binding. Triplicate 18-µl aliquots were withdrawn from each 80 µl reaction, transferred to optically clear PCR tubes (Diamed, Canada) and ANS fluorescence was measured following an additional 3-min incubation at 30 °C using a Qiagen Rotor-gene Q 6-plex with excitation and emission filters of 365 ± 20 nm and 460 ± 20 nm, respectively. An identical reaction series whereby protein was omitted from the mixtures was measured under identical conditions and trace fluorescence was subtracted from each MLP/PR10 protein-containing sample. […]

THS2 = THS2 (Papaver somniferum, UniProt A0A2U9GGW3); assay: ANS fluorescence binding curve (direct ANS-protein affinity); design: made in house; host or cells: E. coli ArcticExpress (DE3); settings: Kd (ANS-protein, apparent), ANS 10 µM fixed, protein 0 to 100 µM; CBS pH 5.5; one-site hyperbolic model
Chain of THS2 (A0A2U9GGW3 whole entry): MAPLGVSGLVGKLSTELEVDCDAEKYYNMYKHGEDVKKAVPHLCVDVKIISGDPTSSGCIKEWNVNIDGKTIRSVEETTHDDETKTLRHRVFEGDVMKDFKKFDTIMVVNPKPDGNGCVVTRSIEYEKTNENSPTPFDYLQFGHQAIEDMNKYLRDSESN
Protocol: (§2) 8-anilino-1-naphthalenesulfonic acid (ANS) fluorescence binding curves and the binding-induced reduction in ANS fluorescence resulting from competition with tested ligands across a range of concentration facilitated the measurement of IC50 and an estimate of Kd values using the binding models and procedures described previously[70]. […] ANS was dissolved in dimethylsufoxide at a concentration of 20 mM, stored at −20 °C until dilution and protected from exposure to light. […] 40 µl of the ANS solution and 40 µl of each MLP/PR10 protein solution were combined to 80 µl final reaction volumes, which were incubated at 21 °C for 10 min to allow equilibration of binding. […] An identical reaction series whereby protein was omitted from the mixtures was measured under identical conditions and trace fluorescence was subtracted from each MLP/PR10 protein-containing sample. Each data set was scaled so that the maximum observed fluorescence corresponded to 100% and individual data points were plotted, and a rectangular hyperbolic ligand binding function was fit, using least-squares analysis (Prism 5 software, Graphpad, USA). Experiments were repeated at least twice with independently prepared protein.

MLP15 [2] = target: T2, MLP15 (Papaver somniferum, UniProt P19825); assay: as above; design: made in house; host or cells: E. coli ArcticExpress (DE3); settings: Kd (ANS-protein, apparent), ANS 10 µM fixed, protein 0 to 100 µM; CBS pH 5.5; one-site hyperbolic model
T2 sequence (P19825 1-159): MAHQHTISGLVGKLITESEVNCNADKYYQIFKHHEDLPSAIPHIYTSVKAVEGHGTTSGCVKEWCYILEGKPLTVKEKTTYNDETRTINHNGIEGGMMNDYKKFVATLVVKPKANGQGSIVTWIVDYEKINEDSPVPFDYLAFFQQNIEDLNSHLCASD
Protocol: as §2

NISO [3] = target: T1, NISO; assay: as above; design: made in house; host or cells: E. coli ArcticExpress (DE3); settings: Kd (ANS-protein, apparent), ANS 10 µM fixed, protein 0 to 100 µM; CBS pH 5.5; one-site hyperbolic model
Protocol: as §2

PR10-10 = target: T3, PR10-10 (Papaver somniferum, UniProt A0A9Y2YA81); assay: as above; settings: weak signal, Kd not determined
T3 sequence (A0A9Y2YA81 1-158): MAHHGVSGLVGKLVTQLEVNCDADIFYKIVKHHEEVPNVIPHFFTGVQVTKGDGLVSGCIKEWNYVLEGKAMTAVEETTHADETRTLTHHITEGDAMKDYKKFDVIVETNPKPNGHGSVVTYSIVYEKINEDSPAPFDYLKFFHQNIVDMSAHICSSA
Protocol: as §2

PR10-4 = settings: read-out: Kd (ANS-protein, apparent); ANS 10 µM fixed, protein 0 to 100 µM; CBS pH 5.5; one-site hyperbolic model
Protocol: as §1

MLP15 [4] = target: T2, MLP15; assay: Isothermal titration calorimetry; format: binding; design: made in house; host or cells: E. coli ArcticExpress (DE3); settings: ITC, CBS pH 5.5, 25 °C
Protocol: ITC experiments were conducted using a Microcal VP instrument (Malvern Pananalytical, Malvern, UK). […] Dialysis was carried out in boiled Spectra/Por 1 6–8 kDa MWCO 0.32 ml/cm (Spectrum Labs, USA) tubing thoroughly washed with either buffer before use. The second 1000-fold volume of dialysis buffer was filtered and degassed using a reusable bottle-top filtration apparatus (Nalgene, USA) with disposable […] cellulose filters (VWR, Canada) prior to storage at 4 °C. Ligands were dissolved in the filtered dialysis buffer at 21 °C for approximately one hour, and any insoluble material was removed by repeated centrifugation at 21,000 × g for 10 min. […] Prior to ITC, which was initiated immediately following dialysis, the protein solutions were centrifuged at 17,000 × g and 4 °C for 30 min. Any precipitate was separated from the remaining soluble protein fraction which was quantified by absorption at A280nm and diluted with filtered dialysis buffer immediately before use.
Thermograms were recorded at 25 °C, with a reference power of 10 (dpu/sec) and monitoring of 30 injections of 9 µl BIA ligand solutions into a sample cell containing 1.4 ml of an MLP/PR10 protein solution, with 300 seconds between injections. […] To ensure that we report only the heat of reaction for each interaction, independent titrations of ligand into buffer, and buffer into protein solutions, were used to calculate and then subtract heats of dilution. After subtraction, binding isotherms were analyzed in MicroCal Origin 7 (MicroCal, USA) by fitting a single-site binding model using non-linear least squares regression analysis repeated until convergence. […] Each ITC experiment was repeated 2 to 4 times.

PR10-12 = settings: read-out: Kd (ANS-protein, apparent); ANS 10 µM fixed, protein 0 to 100 µM; CBS pH 5.5; one-site hyperbolic model
Protocol: as §1

For COC1=C[C@]23CCN(C)[C@H](Cc4ccc(OC)c(O)c42)C3=C[C@@H]1OC(C)=O [salutaridinol-7-O-acetate], the “KA (substrate kinetics)” value (THS) is given as 22 µM.
In the case of COc1ccc2c3c1O[C@H]1C(=O)C=C[C@H]4[C@@H](C2)N(C)CC[C@]314 [codeinone], the Km (NISO [1]) is given as 48 µM.
In the case of O=S(=O)(O)c1cccc2cccc(Nc3ccccc3)c12 [ANS, 8-anilinonaphthalene-1-sulfonic acid], the Kd (MLP2) is reported as 28.6 ± 3.9 µM, the Kd (THS2) is reported as 21 µM and 20.9 µM and the Kd (MLP15 [2]) is reported as 78 µM and 78.4 µM. The Kd (NISO [3]) was 61 µM and 60.5 µM, the “ANS binding to PR10-10 (in words)” value (PR10-10) was “did not bind ANS in a typical manner” and the Kd (PR10-4) was 107 ± 15.3 µM. It also gave a ΔH (MLP15 [4]) of -14.69 ± 0.4972 kcal/mol, a ΔS (MLP15 [4]) of -29.8 cal/mol/˚K and a Kd (MLP15 [4]; single-site model) of 55.3 ± 2.8 µM. For the same molecule, the N (MLP15 [4]; single-site model) was 1.06 ± 0.0244 and the Kd (PR10-12) was 356 ± 139 µM.
